In patent US11285132B2, “Uses of indolinone compounds” (Oncternal Therapeutics, Inc., priority 2016, dated 2022):
One block for each molecule: values may come before it.

Legend:
snoRNAs = assay: Gene expression profiling (Illumina HumanHT 12) of ABC DLBCL cell lines; format: cell-based; settings: 500 nM, 4-8 h; two ABC DLBCL cell lines
Procedure: (§1) Cell lines were exposed to YK-4-279 or TK-216, alone or in combination with other compounds, for 72 h using a Tecan D300e Digital Dispenser and 96 well plates. Cell proliferation was measured with MTT. Synergy was determined with the Chou-Talalay combination index. Gene expression profiling (GEP) was performed with the Illumina HumanHT 12 Expression BeadChips. In vivo studies were done in NOD-SCID mice and treatments started with 60 mm3 tumor volumes sc.
With the aim to understand the mechanism of action of YK-4-279 and TK-216, the baseline RNA expression levels of the different ETS factors were correlated with sensitivity to the drugs. SPIB was the gene presenting the most significant negative correlation with both YK-4-279 and TK-216, especially among the ABC DLBCL cell lines (P<0.05). SPIB is a known oncogene for ABC DLBCL (Lenz et al, PNAS 2008) and is involved in the response to lenalidomide in ABC DLBCL (Yang et al, Cancer Cell 2012). YK-4-279 inhibits the binding of EWS1-FLI1 to the helicases RHA and DDX5 (Selvanathan et al, PNAS 2012). Thus, it was assessed whether YK-4-279 and TK-216 can have a similar effect on SPIB and whether they induce cellular effects similar to lenalidomide. […] In ABC DLBCL, the ETS inhibitor YK-4-279 and its clinical derivative TK-216 interfere with SPIB and helicases involved in RNA editing. […]

MOLM-16 = assay: 72 hr CellTiter-Glo, AML cell line; format: cell-based
HL-60 = assay: 72 hr CellTiter-Glo, AML cell line; format: cell-based
ML-2 = assay: 72 hr CellTiter-Glo, AML cell line; format: cell-based
Kasumi-1 = assay: 72 hr CellTiter-Glo, AML cell line; format: cell-based
MOLM-13 = assay: 72 hr CellTiter-Glo, AML cell line; format: cell-based
THP-1 = assay: 72 hr CellTiter-Glo, AML cell line; format: cell-based
TMD8 cells xenografts = assay: TMD8 ABC-DLBCL xenograft in NOD-SCID mice; format: in vivo; settings: 100 mg/Kg, BID; n=9
Procedure: NOD-Scid mice subcutaneously inoculated with TMD8 cells (15×10^6) were split in two groups respectively treated with TK-216 (100 mg/kg, BID, po, n=9) and control vehicle (n=10). In each box-plot, the line in the middle of the box represents the median and the box extends from the 25th to the 75th percentile (interquartile range, IQ); the whiskers extend to the upper and lower adjacent values (i.e., ±1.5 IQ).
56 lymphoma cell lines [27 diffuse large B cell lymphoma (DLBCL); 10 mantle cell lymphoma; 6 marginal zone lymphoma; 5 anaplastic large T-cell lymphoma; 8 others] were exposed to TK-216 increasing doses for 72 h using a Tecan D300e Digital Dispenser and 384 well plates. Cell proliferation was measured with MTT. In vivo study was done in NOD-SCID mice; treatments were started with approximately sc 60 mm3 tumor volumes. Sensitivity was not affected by the lymphoma cell of origin (B vs T; activated B cell type DLBCL versus germinal center type DLBCL) or MYC and TP53 status. There was a non-statistically significant trend for lower sensitivity in cell lines bearing BCL2 chromosomal translocation (P=0.07, DLBCL only; P=0.06, all cell lines).
(§2) The latter synergism could be linked to the previously mentioned negative trend between TK-216 IC50 values and the presence of BCL2 translocation.
as §1

DLBCL cell lines = assay: Combination with other targeted agents, summary over DLBCL cell lines; format: cell-based; settings: with lenalidomide; four DLBCL cell lines (2 ABC, 2 GCB)
Procedure: as §2, §1
Since lenalidomide is active in mantle cell lymphoma (MCL), the synergism of the combination of TK-216 and lenalidomide was confirmed also in two MCL cell lines.

SPIB to DDX5 = molecular target: T1, SPIB to DDX5 (Homo sapiens, UniProt Q01892); assay: Co-IP of SPIB with helicases in ABC DLBCL cell lines; format: cell-based; settings: 500 nM, 4-10 h
T1 construct: endogenous in cells
T1 sequence (Q01892 whole entry): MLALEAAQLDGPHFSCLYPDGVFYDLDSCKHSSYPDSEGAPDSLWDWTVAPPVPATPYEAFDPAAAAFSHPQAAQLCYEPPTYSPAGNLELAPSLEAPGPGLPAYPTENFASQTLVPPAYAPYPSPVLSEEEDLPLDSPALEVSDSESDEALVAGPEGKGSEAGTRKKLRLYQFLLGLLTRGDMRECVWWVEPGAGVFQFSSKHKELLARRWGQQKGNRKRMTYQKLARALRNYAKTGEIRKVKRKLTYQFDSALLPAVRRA
Text: (§3) With the aim to understand the mechanism of action of YK-4-279 and TK-216, the baseline RNA expression levels of the different ETS factors were correlated with sensitivity to the drugs. SPIB was the gene presenting the most significant negative correlation with both YK-4-279 and TK-216, especially among the ABC DLBCL cell lines (P<0.05). SPIB is a known oncogene for ABC DLBCL (Lenz et al, PNAS 2008) and is involved in the response to lenalidomide in ABC DLBCL (Yang et al, Cancer Cell 2012). YK-4-279 inhibits the binding of EWS1-FLI1 to the helicases RHA and DDX5 (Selvanathan et al, PNAS 2012). Thus, it was assessed whether YK-4-279 and TK-216 can have a similar effect on SPIB and whether they induce cellular effects similar to lenalidomide. […] In ABC DLBCL, the ETS inhibitor YK-4-279 and its clinical derivative TK-216 interfere with SPIB and helicases involved in RNA editing. Moreover, both compounds act similarly to lenalidomide inhibiting IRF4 and upregulating IRF7 and synergize with the IMID in both ABC DLBCL and MCL.

SPIB to RHA = molecular target: T2, SPIB to RHA (Homo sapiens, UniProt Q01892); assay: as above; format: cell-based; settings: 500 nM, 4-10 h
T2 construct: endogenous in cells
T2 sequence (Q01892 whole entry): as above
Text: as §3

Compound: COc1ccc(C(=O)C[C@@]2(O)C(=O)Nc3c(Cl)ccc(Cl)c32)cc1 [(S)-YK-4-279]
- snoRNA expression (GEP) (snoRNAs): important upregulation of multiple snoRNAs

Compound: N.N.[Cl][Pt][Cl] [Cisplatin, reference compound]
- IC50 (MOLM-16): 2190 nM
- IC50 (HL-60): 1930 nM
- IC50 (ML-2): 1400 nM
- IC50 (Kasumi-1): 4560 nM
- IC50 (MOLM-13): 798 nM
- IC50 (THP-1): 1360 nM

- binding of SPIB to RHA (SPIB to RHA): decreased
Compound: COc1ccc(C(=O)CC2(O)C(=O)Nc3c(Cl)ccc(Cl)c32)cc1 (centres unmarked) [YK-4-279, 4,7-dichloro-3-hydroxy-3-(2-(4-methoxyphenyl)-2-oxoethyl)indolin-2-one, reference compound]
- tumor growth compared with control group (TMD8 cells xenografts): reduction in tumor growth
- combination of YK-4-279 plus lenalidomide (DLBCL cell lines): synergism in both ABC DLBCL
- binding of SPIB to DDX5 (SPIB to DDX5): to a lesser extent, to DDX5 was decreased
